What was measured:
Assay type in all cases: in vivo, Gossypium hirsutum
[1] = system: mutant pagoda1; assay: Shaping of cotton by local application of brassinosteroids
Excerpt: Since brassinosteroids cannot be delivered for a long distance in a plant, a local application thereof may promote the growth of the applied part, without an impact on the far part.

[2] = system: mutant pagoda1; assay: Response of mutant pagoda1 to brassinosteroids (hypocotyledonary axis length); details: 500 nM in liquid medium, cotyledon stage to five leaf stage, vs 0.2% ethanol control, average of 20 plants
Description: (§1) The mutant pagoda1 and the cotton variety“CRI 24” were identified as below, respectively: • Test Group: cultivating cotton plants of the cotyledon stage in a liquid medium containing 500 nM brassinosteroids (Sigma) to the five leaf stage, to measure the length of its hypocotyledonary axis;
(§2) Control Group: the same as the Test Group, except that brassinosteroids was replaced with an equal volume of an aqueous solution of 0.2% ethanol.
(§3) The length measurements of hypocotyledonary axis of the processed plants from respective groups (an averaged measurement of 20 plants for each group) are shown in FIG. 2. […] For the cotton variety “CRI 24”, after the treatment with brassinosteroids, the hypocotyledonary axis was prolonged by only 16%.

[3] = system: cotton variety "CRI 24"; assay: Response of cotton variety CRI 24 to brassinosteroids (hypocotyledonary axis length); details: 500 nM in liquid medium, cotyledon stage to five leaf stage, vs 0.2% ethanol control, average of 20 plants
Description: as §1, §2, §3

Substance: brassinosteroids
- extension of the lateral branch after application to the lateral branch ([1]; 500 nM applied to a lateral branch of a seedling of mutant pagoda1 (FIG. 4B)): significantly extended
- growth of the top of the seedling after application to the top ([1]; 500 nM applied to the top of a seedling of mutant pagoda1 (FIG. 4A)): significantly promoting the growth of the top of the seeding
- hypocotyledonary axis prolonged after treatment with brassinosteroids [2]: 270%
- hypocotyledonary axis prolonged after treatment with brassinosteroids [3]: 16%
